Legend:
HL60 = test: Determination of cell growth curve (cell counting); format: cell-based, human; settings: 5 days
Experimental: (§1) The effect of TB on the growth of various human cancer cells […]. In FIG. 1, (A) COLO205, (B) HT29, (C) HepG2, (D) Hep3B, (E) HL60, and (F) normal human fibroblast cells were treated with various concentrations of TB (30 to 120 μM). Media with or without TB were renewed daily until cell counting. Three samples were analyzed in each group. Values represent mean±S.E. The cells were cultured for 5 days with or without TB (30-120 μM), and then the cells were harvested and counted. […] Human colon cancer, hepatoma, leukemia, and human normal fibroblast cells at a density of 1×10^4 were plated in 35-mm Petri dishes. TB was added at the indicated doses in 0.05% dimethyl-sulfoxide (DMSO). For control specimens, the same volume of the 0.05% DMSO without TB was added. Media with and without TB were changed daily until cell counting

HT29 = test: Determination of cell growth curve (cell counting); format: cell-based, human; settings: 5 days
Experimental: as §1

Hep3B = test: Determination of cell growth curve (cell counting); format: cell-based, human; settings: 5 days
Experimental: as §1

HepG2 = test: Determination of cell growth curve (cell counting); format: cell-based, human; settings: 5 days
Experimental: as §1

COLO 205 cells [1] = test: Flow cytometry (FACS) cell cycle analysis; format: cell-based, human
Experimental: When they were returned to culture media containing 10% FCS and 0.05% DMSO (control) or 90 μM TB in 0.05% DMSO (which started them all on a new cell cycle) and, at various times thereafter, they were harvested for flow cytometry analysis. […] COLO 205 (A) and HT29 (B) cells were synchronized with 0.04% FCS for 24 h as described in Examples. After synchronization, the cells were then released into complete medium (10% FCS) containing 0.05% DMSO (left panel), or 90 μM TB in 0.05% DMSO (right panel). Percentage of cells in G0/G1, S, and G2/M phases of the cell cycle were determined using established CellFIT DNA analysis software. […] In Hep3B (D) and HL60 (E), TB caused the occurrence of apoptosis in a dose-dependent manner. […] FACS analysis of DNA content after 15 h release from quiescence by incubation in culture media supplemented with 10% FCS and various concentrations of TB in 0.05% DMSO. Percentage of cells in G0/G1, S, and G2/M phases of the cell cycle were determined using established CellFIT DNA analysis software.
The invention further tested whether TB can induce cell cycle arrest at a lower concentration with longer exposure. […] The COLO 205 cells were exposed to culture media supplemented with 10% FCS and various concentrations (1 and 5 μM) of TB in 0.05% DMSO for the indicated times. Media with and without TB were changed daily until flowcytometry analysis performed. Percentage of cells in G0/G1, S, and G2/M phases of the cell cycle were determined using established CellFIT DNA analysis software. Three samples were analyzed in each group, and values represent the mean±S.E.
The COLO 205 and HT 29 cells were synchronized as previously described. (Chen R J, et. al., Toxicology & Applied Pharmacology 2000;169(2):132-41.). After the cells had grown to 70-80% confluence, they were rendered quiescent by incubation for 24 h in RPMI 1640 containing 0.04% FCS, and challenged with 10% FCS. Then, after release using trypsin-EDTA, they were harvested at various times, washed twice with PBS/0.1% dextrose, and fixed in 70% ethanol at 4° C. Nuclear DNA was stained with a reagent containing propimdiamdiodine (50 DNase-free RNase (2 U/ml) and measured using a fluorescence-activated cell sorter (FACS). The population of nuclei in each phase of the cell cycle was determined using established CellFIT DNA analysis software (Becton Dickenson, San Jose, Calif.).

Hep 3B cells = test: Flow cytometry (FACS) cell cycle analysis; format: cell-based, human; settings: TB 10-150 μM, 15 h
human fibroblasts = test: Flow cytometry (FACS) cell cycle analysis; format: cell-based
COLO 205 cells [2] = test: DNA fragmentation (DNA ladder) by electrophoresis of genomic DNA; format: cell-based, human
Experimental: Genomic DNAs extracted from TB-treated COLO 205 were examined by gel electrophoresis. […] In FIG. 9, the part of (A) refers to potentiation of ND-induced apoptosis by TB. […] DNA fragmentation was examined at 24 h after drug treatment. In the lanes 2 and 8, cells received mock treatment as controls. The symbols of “M” (in lanes 1 and 7), refer to “DNA size marker.” (B) average tumor volume of DMSO-treated vs. drug-treated nude mice (n=5). (C) tumor weight, (D) animal body weight, and (E) tumor/body weight ratio were measured at the end of experiment. Five samples were analyzed in each group, and values represent the mean±S.E. Comparisons were subjected to ANOVA followed by Fisher's least significant difference test. Significance was accepted at p<0.05. *TB-, ND-, and TB+ND-treated group different from DMSO-treated group. TB+ND-treated group different from TB- or ND-treated group.

[3] = tested on: COLO 205 tumor xenografts; test: Treatment of COLO 205-derived xenografts in vivo; parameters: species or system nude mouse
Experimental: Genomic DNAs extracted from TB-treated COLO 205 were examined by gel electrophoresis. […] DNA fragmentation was examined at 24 h after drug treatment. In the lanes 2 and 8, cells received mock treatment as controls. […] Comparisons were subjected to ANOVA followed by Fisher's least significant difference test. […] Since, retardation of the cell cycle and/or activation of the cellular apoptotic response are two major mechanisms preventing tumor growth, we examined the TB effect on the cell cycle and apoptosis occurrence of the solid tumor derived from the implanted COLO 205. The COLO-205 cells (5×10^6) in 0.1 ml RPMI 1640 were injected subcutaneously between the scapulae of each nude mouse (purchased from National Science Council animal center, Taipei). […]

COLO 205 tumor tissues = test: DNA fragmentation analysis / TdT nick end labeling in tumor tissues; format: in vivo, nude mouse; settings: tumor from TB-treated mouse, 6 weeks
[4] = TB 30-120 μM, media renewed daily, dose-dependent
[5] = TB concentration increased to 60 μM

## CN(C/C=C/C#CC(C)(C)C)Cc1cccc2ccccc12 [TB, 1-Naphthalenemethanamine, N-(6,6-dimethyl-2-hepten-4-ynyl)-N-methyl-, (E)-]
HL60; [4]
  cell number: decreased cell number
HL60; [5]
  cell growth at TB 60 μM: cell growth arrest or cell death
HT29; [4]
  cell number: decreased cell number
HT29; [5]
  cell growth at TB 60 μM: cell growth arrest or cell death
Hep3B; [4]
  cell number: decreased cell number
Hep3B; [5]
  cell growth at TB 60 μM: cell growth arrest or cell death
HepG2; [4]
  cell number: decreased cell number
HepG2; [5]
  cell growth at TB 60 μM: cell growth arrest or cell death
COLO 205 cells [1]; 60 μM TB alone, 15 h
  increase of G0/G1 population: about 2.3 fold
COLO 205 cells [1]; 90 μM TB after release from quiescence
  accumulation of cells at the G0/G1 phase: > 90%
COLO 205 cells [1]; TB 1 μM for 3 days
  G0/G1 cell cycle arrest at low concentration with longer exposure: arrested the COLO 205 cells at the G0/G1 phase
COLO 205 cells [1]; TB 1 μM for 4 days, media changed daily
  G0/G1 cell cycle arrest at low concentration with longer exposure: induce significant G0/G1 cell cycle arrest
COLO 205 cells [1]; various concentrations of TB, 15 h after release from quiescence, dose-dependent
  G0/G1 arrest, dose effect: induced G0/G1 arrest
Hep 3B cells
  apoptosis (presence of sub G1): dose-dependently caused the occurrence of apoptosis
Hep 3B cells; p53 partial deleted cells
  G0/G1 arrest: did not induce G0/G1 arrest
Human fibroblasts; TB 10-150 μM
  cytotoxicity for untransformed human fibroblasts: not cytotoxic
Human fibroblasts; TB treatment for 15 h
  cell cycle arrest or cell death: did not induce cell cycle arrest or cell death
COLO 205 cells [2]; 10 μM TB alone, 24 h
  DNA ladder: does not induce DNA ladder
COLO 205 cells [2]; co-treatment with TB 10 μM and ND
  effect of TB on ND-induced apoptosis: enhanced the ND-induced apoptosis
[3]; 50 mg/Kg body weight
  cytotoxicity for the vital organs: not cytotoxic for the vital organs
[3]; TB 50 mg/kg, ND 5 mg/kg, intraperitoneal, 3 times per week for 6 weeks
  tumor volume vs. vehicle (DMSO plus peanut oil): reduction in tumor volume
[3]; intraperitoneal TB 50 mg/kg
  tumor size of the COLO 205 tumor mass: substantial decline in tumor size
COLO 205 tumor tissues
  apoptosis in COLO 205 tumor (nick end labeling, DNA fragmentation): Induction of apoptosis
